Values quoted from earlier work in patent US20180325839A1, “TRANSDERMAL PATCHES” (BUZZZ PHARMACEUTICALS LIMITED, priority 2015, published 2018).

Columns and labels:
[1] = local anaesthetic during cataract surgery

**Q.** Which results are given for `CCCN1CCCC[C@H]1C(=O)Nc1c(C)cccc1C` [ropivacaine, (2S)—N-(2,6-dimethylphenyl)-1-propyl-2-piperidinecarboxamide]?
**A.** Half-life compared with lidocaine [1]: longer; Potency relative to lidocaine, dose-for-dose [1]: as much as four times as potent as lidocaine; Skin permeation characteristics compared with lidocaine saturated H2O (ropivacaine saturated H2O): significantly poorer; In vivo skin penetration compared to a saturated solution of lidocaine (saturated solution of ropivacaine): poor
